The term IC50 denotes the concentration at which inhibition is half-maximal.

Entries after “also recorded” stand apart in the source; their conditions may differ. Where two headings read alike, the source gives them in different places.

These results are taken from EP4039094A1, “NOVEL ANTIFUNGAL COMPOUNDS” (Max-Planck-Gesellschaft zur Förderung der Wissenschaften …, priority 2021, dated 2022).

Assay [1] addresses T1, Stp1/Stp4/Stp3 subcomplex (Mycosarcoma maydis, UniProt A0A0D1C5E3+A0A0D1CU07+A0A0D1EAN2).
T1 sequence (A0A0D1CU07 29-515): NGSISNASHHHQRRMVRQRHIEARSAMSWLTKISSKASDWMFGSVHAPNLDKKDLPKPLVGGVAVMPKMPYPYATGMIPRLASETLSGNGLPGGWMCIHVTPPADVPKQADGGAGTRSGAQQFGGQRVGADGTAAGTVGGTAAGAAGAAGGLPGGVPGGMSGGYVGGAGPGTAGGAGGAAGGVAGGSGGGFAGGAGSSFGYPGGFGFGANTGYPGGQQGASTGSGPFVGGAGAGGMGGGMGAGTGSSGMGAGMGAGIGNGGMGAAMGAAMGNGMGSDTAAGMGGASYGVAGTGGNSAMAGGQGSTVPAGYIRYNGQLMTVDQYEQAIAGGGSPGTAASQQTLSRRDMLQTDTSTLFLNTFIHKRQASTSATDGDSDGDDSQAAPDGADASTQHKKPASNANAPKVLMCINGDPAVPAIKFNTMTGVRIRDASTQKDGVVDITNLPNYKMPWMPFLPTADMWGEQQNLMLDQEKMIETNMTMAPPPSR
T1 sequence (A0A0D1C5E3 24-129): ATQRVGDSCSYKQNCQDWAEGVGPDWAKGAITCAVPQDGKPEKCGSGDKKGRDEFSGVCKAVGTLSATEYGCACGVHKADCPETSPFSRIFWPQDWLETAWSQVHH
T1 sequence (A0A0D1EAN2 25-327): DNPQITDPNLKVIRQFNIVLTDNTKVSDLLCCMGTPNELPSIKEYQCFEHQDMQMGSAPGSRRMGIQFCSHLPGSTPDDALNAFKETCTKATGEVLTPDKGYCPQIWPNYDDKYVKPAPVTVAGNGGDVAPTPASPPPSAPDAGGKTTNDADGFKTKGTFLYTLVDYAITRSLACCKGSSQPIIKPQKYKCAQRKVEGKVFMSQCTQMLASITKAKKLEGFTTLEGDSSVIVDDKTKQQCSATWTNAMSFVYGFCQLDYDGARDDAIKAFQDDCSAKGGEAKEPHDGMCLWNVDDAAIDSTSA
As to the kind of experiment: Alamar Blue viability assay in S. cerevisiae 2-hybrid strain NL73 (viability depends on Stp complex formation). The format is cell-based, U. maydis. The conditions noted are these: for activity in the Alamar Blue assay with NL73: result in words. From the text:
To develop a screening platform based on Stp complex formation, a Saccharomyces cerevisiae 2-hybrid system was used. […] After co-transformation, reporter gene transcription is activated only if the two fusion proteins interact in the yeast nucleus. Moreover, the S. cerevisiae strain AH109 harbours the reporter genes ADE2 and HIS3, which encode for two enzymes that are crucial for adenine (Ade) and histidine (His) biosynthesis and thereby enable nutritional selection as a read-out for the interaction between proteins. In the following experiments, growth on high-stringency synthetic defined (SD) medium (SD -Leu -Trp -Ade -His) was used to identify if the complex members interact between them causing expression of ADE2 and HIS3. Additionally, strains were also grown on low-stringency medium (SD -Leu -Trp) to confirm their viability. […] All experiments were done with three independent transformants to exclude false positives due to spontaneous mutations.
The S. cerevisiae strain AH109 from Clontech (Saint-Germain-en-Laye, France) is auxotrophic for tryptophan, leucine, adenine and histidine. In addition, lacz is under control of the MEL1 UAS to be used as readout for quantitative β-galactosidase assays.
The resulting test strain NL73 (AD-Stp4/BD-Stp1/myc-Stp3) expresses the Stp1/Stp4/Stp3 subcomplex. NL73 carries the following three plasmids: pGBKT7-stp1: pGBKT7 vector expressing proteins fused to the GAL4 DNA binding domain (DNA-BD). pGBKT7 also contains the T7 promoter, a c-Myc epitope tag, and a MCS. The vector carries a Kanamycin resistance gene (Kanr) for selection in E. coli and the TRP1 nutritional marker for selection in yeast. pGAD-stp4: pGADT7 vector expressing proteins fused to a GAL4 activation domain (AD). The GAL4 AD fusion contains an N-terminal nuclear localization signal that targets the protein to the yeast nucleus, and a HA Tag, located between the GAL4 AD and the protein of interest. The vector carries an ampicillin resistance gene (Ampr) for selection in E. coli and a LEU2 nutritional marker for selection in yeast. pYEA-stp3-myc: pYEA vector expressing proteins under the control of the phosphoglycerate kinase promoter. The vector carries an ampicillin resistance gene (Ampr) for selection in E. coli and an ADE2 nutritional marker for selection in yeast. As control strain, NL70 containing empty vectors was generated (AH109Δabc9 pGAD::LEU2 pGBK::TRP1 pYEA::ADE2).
After that, 25 µl of NL73 cell suspension were dispensed into the assay plates using Multidrop Combi (Thermofisher Scientific) giving a final screening concentration of 10 µM. One column of the assay plate was filled with 25 µl of NL70 control strain cell suspension as negative control. Plates were sealed with Breathe-Easy sealing membrane (Sigma, Z380059), lidded and incubated in a humid chamber over night at 30°C and 140 rpm in an HT Multitron Pro (Infors). […] For the viability assay, the alamar Blue HS Cell Viability reagent (Invitrogen, #A50101) was pre-diluted using an equal amount of dVE-H2O and 5 µl of diluted Alamar Blue were added to the screening plates using Multidrop Combi. The plates were sealed again and incubated for 4 h at room temperature, unlidded. […] Screening data was normalized to DMSO-treated NL73 cells (that received DMSO in the same concentration as in samples where compounds dissolved in DMSO were added) being 100% and DMSO-treated NL70 cells representing 0% viability and analyzed with Quattro Software Suite (Quattro Research GmbH).
For orientation: Resazurin is reduced to fluorescent resorufin, in cell work by metabolically active cells.

Assay [2] deals with U. maydis strains FB1 and FB2. Description: Maize seedling infection model, compound added to inoculum, symptom scoring 12 dpi. Type of assay: in vivo, Ustilago maydis. The arrangement: key to Severity of disease symptoms First infection / Severity of disease symptoms Second infection: Full virulence is symbolized by (XXXXX); XXX - slightly reduced virulence; XX - reduced virulence; x - strongly reduced virulence. Particulars: for inhibitory effect on virulence of U. maydis: 1 mM, 0.5 mM and 0.1 mM final concentration in the inoculum (Figure 2C); for virulence of U. maydis: 5 mM final concentration in the inoculum of FB1xFB2, first test of ten hits; for Retesting for an inhibition of virulence: U. maydis, retest of four compounds; for Severity of disease symptoms First infection: 4-7 plants per assay. On the procedure:
Compounds to be tested were added to the inoculum. Briefly, 6 day old maize seedlings were syringe-infected with about 0.5 ml of fungal suspension in H2O which was amended with the hit compound. The infection and symptoms assessment were done as described in Kämper et al., (Insights from the genome of the biotrophic fungal plant pathogen Ustilago maydis. Nature 2006, 444, 97-101). During the syringe-infection into the stem, the fungal-compound mix is dispersed between the rolled-up leaves and fills the leaf whorl. The compounds were applied only at the stage of mixing with the inoculum, which is subsequently diluted with existing apoplastic fluid, during the infection. In addition, compounds have to reach the Stp complex in biotrophic hyphae from the initial inoculum. […] Since compounds are dissolved in DMSO, the tolerance of U. maydis towards DMSO was tested by adding DMSO to the inoculum at concentrations between 10 and 50% final concentration.
Symptom scoring was done 12 days post infection (dpi) in case of U. maydis seedling infections. Symptom scoring occurred according to the categories described in Table 2. Table 2: Categories of virulence symptoms of U. maydis maize seedling infection (according to Kämper et al., 2006).

The mark [3] stands for this setting: NL73 strain, Table 5, read-out: A-blue IC50.
[4] abbreviates: 1 mM final concentration in the inoculum of Zea Mays (Figure 2A, B).
Setting [5] is: 5 mM hit compound added to inoculum of FB1xFB2, Zea mays.

For `Cc1ccc(-c2c(-c3ccc(C)cc3)[n+]([O-])c3ccccn23)cc1` [Compound 1-A], the 50% inhibitory concentration (IC50) in assay [1] (setting [3]) worked out at 140 nM. Moreover, in assay [1], the “activity in the Alamar Blue assay with NL73” value was “nanomolar potency”. The “Virulence inhibition of U. maydis” value in assay [2] (setting [4]) is “able to reduce virulence”. Besides, in assay [2], the “inhibitory effect on virulence of U. maydis” value is “concentration dependent inhibitory effect”, the “virulence of U. maydis” value is recorded as “significant reductions in virulence” and the “Retesting for an inhibition of virulence” value is given as “confirmed the results”.

With `Cc1ccc(CSc2nc(=O)n(C3CCCC3)c3c2CCC3)cc1` [Compound 1-C], the concentration for half-maximal inhibition (IC50) in assay [1] (inhibitory activity on NL73 viability, Table 6, read-out: IC50) is 670 nM. Moreover, the “activity in the Alamar Blue assay with NL73” value in assay [1] is reported as “active in the nanomolar range”. Also, in assay [2], the “virulence of U. maydis” value is recorded as “significant reductions in virulence” and the “Retesting for an inhibition of virulence” value is “confirmed the results”. The “Severity of disease symptoms First infection” value in assay [2] (setting [5]) was “XXX”. Besides, the “Severity of disease symptoms Second infection” value in assay [2] (5 mM hit compound added to inoculum of FB1xFB2, Zea mays, retest) was “XXX”. In addition, in assay [2] (dilution series between 5 mM and 0.01 mM final concentration (Figure 5)), the “Virulence inhibition of U. maydis” value is listed as “concentration dependent; also recorded: strong inhibitory activity”.

Turning to `O=[N+]([O-])c1ccc(-c2c(-c3ccccc3)n3ccccc3[n+]2[O-])cc1` [Compound 3-A], the IC50 in assay [1] (setting [3]) turned out to be 250 nM. The “Virulence inhibition of U. maydis” value in assay [2] (setting [4]) is “only mildly”.

Consider `[O-][n+]1c(-c2ccc(C(F)(F)F)cc2)c(-c2ccc(C(F)(F)F)cc2)n2ccccc21` [Compound 2-A], for which, in assay [1] (setting [3]), the concentration for half-maximal inhibition (IC50) amounted to 20 nM. The “Virulence inhibition of U. maydis” value in assay [2] (setting [4]) is reported as “able to reduce virulence”. Besides, the “inhibitory effect on virulence of U. maydis” value in assay [2] is given as “concentration dependent inhibitory effect”.

Take `CC(C)n1ncc2cc(NS(=O)(=O)c3cc(F)ccc3F)cnc21` [Compound 1-B]: the IC50 in assay [1] (read-out: IC50 in the Alamar Blue viability assay of NL73) was 2500 nM. Moreover, the “Virulence inhibition of U. maydis” value is reported as “negligible” in assay [2] (0.5 mM final concentration, dilution series (Figure 7)); “very strong; also recorded: very strongly” in assay [2] (1 mM final concentration, dilution series (Figure 7)); “very strong; also recorded: very strongly” in assay [2] (5 mM final concentration, dilution series (Figure 7)). Besides, the “virulence of U. maydis” value in assay [2] is recorded as “significant reductions in virulence”. Besides, the “Severity of disease symptoms First infection” value in assay [2] (setting [5]) is “XX”. Moreover, in assay [2], the “Retesting for an inhibition of virulence” value is “confirmed the results”.
